Seven molecules from ChEMBL document CHEMBL5214963, “Development of a penetratin-conjugated stapled peptide that inhibits Wnt/β-catenin signaling” (Bioorg Med Chem, 2022) can be followed below.

In series [1] the test system is A549. Description: Cytotoxicity against human A549 cells assessed as cell growth inhibition at 20 uM incubated for 24 hrs by CellTiter-Glo reagent based microplate reader analysis. The class given is functional.
For series [2], the system named is DLD-1. Description: Cytotoxicity against human DLD-1 cells assessed as reduction in cell growth at 20 uM incubated for 24 hrs by CellTiter-Glo reagent based microplate reader analysis. It is filed as functional. For orientation: ATP-based viability assays read luminescence as a measure of living cells.
Series [3] is described as follows: Stability of the compound in proteinase K (unknown origin) assessed as remaining parent compound at 100 uM measured after 480 mins by HPLC analysis. It is filed as ADME. Particulars: read-out: Stability.
For series [4], the system named is A549. Description: Cytotoxicity against human A549 cells assessed as cell growth inhibition at 20 uM incubated for 5 days by CellTiter-Glo reagent based microplate reader analysis. It is filed as functional. As to conditions: time 5.0 day.
The subject of series [5] is DLD-1. Nature of the series: Cytotoxicity against human DLD-1 cells assessed as cell growth inhibition at 20 uM incubated for 5 days by CellTiter-Glo reagent based microplate reader analysis. As to conditions: time 5.0 day. It is filed as functional.
Series [6] has as its system HEK293. Nature of the series: Inhibition of Wnt/beta-catenin transactivation signalling in Wnt3a stimulated human HEK293 cells harbouring TCF/LEF luciferase reporter gene assessed as inhibition TCF-beta-catenin complex formation by measuring luminescence level at 20 uM preincubated for 15 hrs followed by recombinant mouse Wnt-3a addition and measured after 5 hrs by luminescence based microplate reader analysis. The class given is cell-based. Particulars: time 20.0 hrs. (In general: In a reporter assay the amount or activity of a reporter protein is the signal.)

For series [7], the system named is HEK293. Nature of the series: Inhibition of Wnt/beta-catenin transactivation signalling in Wnt3a stimulated human HEK293 cells harbouring TCF/LEF luciferase reporter gene assessed as inhibition TCF-beta-catenin complex formation by measuring luminescence level at 50 uM preincubated for 15 hrs followed by recombinant mouse Wnt-3a addition and measured after 5 hrs by luminescence based microplate reader analysis. Particulars: time 20.0 hrs. It is filed as cell-based.

Series [8] relates to HEK293. Nature of the series: Inhibition of Wnt/beta-catenin transactivation signalling in Wnt3a stimulated human HEK293 cells harbouring TCF/LEF luciferase reporter gene assessed as inhibition TCF-beta-catenin complex formation by measuring luminescence level at 0.1 to 20 uM preincubated for 15 hrs followed by recombinant mouse Wnt-3a addition and measured after 5 hrs by luminescence based microplate reader analysis. It is filed as cell-based. As to conditions: dose 0.1-20 µM, time 20.0 hrs, DDE = dose-dependent effect.

Active and inactive are the calls of the source. The calls are words filed in the database; no cut-off is given here. *1 amine or outer side, *2 acyl side, *3 side chain or, on linkers, in order; H or OH if unused. Where a SMILES comes first, the peptide text is derived from it. Bridges are numbered along the chain shown (N, C = ends). [ ]: non-standard residue; d: D form. Nle(6-ylidene) = O=C([C@H](CCCC=[*:3])N[*:1])[*:2]; Nle = CCCC[C@H](N)C(=O)O; βAla = NCCC(=O)O

Regarding `CCCC[C@H](NC(=O)[C@@H]1CCC/C=C\CCC[C@H](NC[C@H](C)NC(=O)[C@H](C)NC(=O)CCNC(=O)[C@H](CCC(N)=O)NC(=O)[C@@H]2CCCN2C(=O)[C@@H]2CCCN2C(=O)[C@H](CCCNC(=N)N)NC(=O)[C@H](CCCNC(=N)N)NC(=O)[C@H](CCCNC(=N)N)NC(=O)[C@H](CCC(N)=O)NC(=O)[C@H](CCCNC(=N)N)NC(=O)[C@H](CCCNC(=N)N)NC(=O)[C@H](CCCCN)NC(=O)[C@H](CCCCN)NC(=O)[C@H](CCCNC(=N)N)NC(=O)CN)C(=O)N[C@@H](CC(C)C)C(=O)N[C@@H](CC(=O)O)C(=O)N[C@@H](Cc2ccc(O)cc2)C(=O)N1)C(=O)N[C@@H](CS)C(=O)N[C@@H](CC(N)=O)C(=O)N[C@@H](Cc1ccc(O)cc1)C(=O)O`, the outcome in the series on A549 [1] and with DLD-1 [2] was Active.
Take `CC(C)C[C@H](NC(=O)[C@H](C)NC(=O)[C@H](C)NC(=O)CCN)C(=O)N[C@@H](CC(C)C)C(=O)N[C@@H](CC(=O)O)C(=O)N[C@@H](Cc1ccc(O)cc1)C(=O)N[C@H](C(=O)N[C@@H](CS)C(=O)N[C@@H](CC(N)=O)C(=O)N[C@@H](Cc1ccc(O)cc1)C(=O)O)[C@@H](C)O` (H-[βAla]AALLDYTCNY-OH): the remaining at 8 h, 100 µM in series [3] stood at 0.1%.
With `CC[C@H](C)[C@@H]1NC(=O)[C@@H](NC(=O)[C@H](CCCNC(=N)N)NC(=O)[C@@H]2CCCN2C(=O)[C@H](Cc2c[nH]c3ccccc23)NC(=O)[C@H](CCCNC(=N)N)NC(=O)[C@H](CCCNC(=N)N)NC(C)=O)CCC/C=C\CCC[C@@H](C(=O)N[C@@H](Cc2cnc[nH]2)C(=O)N[C@H](C(=O)N[C@@H](CCCNC(=N)N)C(=O)N[C@@H](CCCNC(=N)N)C(=O)N[C@H](C(=O)N[C@@H](Cc2c[nH]c3ccccc23)C(=O)N[C@@H](CCCNC(=N)N)C(=O)O)C(C)C)C(C)C)NC(=O)[C@H](CC(=O)O)NC(=O)[C@H](CC(C)C)NC1=O` (Ac-RRWPR[Nle(6-ylidene)]ILD[Nle(6-ylidene)]HVRRVWR-OH; staple (Z) 6-10), the result with A549 [4] and in the series with DLD-1 [5] was Active. In addition, the inhibition entry in the series with HEK293 [6] is “Active”.
Consider `O=C(Nc1cccc2cccnc12)c1ccc(N2C(=O)[C@@H]3[C@H](C2=O)[C@@H]2C=C[C@H]3C2)cc1`, for which the inhibition result with HEK293 [7] is “Active”.
On to `CCCC[C@H](NC(=O)[C@@H]1CCC/C=C\CCC[C@H](NC(=O)[C@H](C)NC(=O)[C@H](C)NC(=O)CCNC(=O)[C@H](CCCNC(=N)N)NC(=O)[C@H](CCCNC(=N)N)NC(=O)[C@H](CCCNC(=N)N)NC(=O)[C@H](CCCNC(=N)N)NC(=O)[C@H](CCCNC(=N)N)NC(=O)[C@H](CCCNC(=N)N)NC(=O)[C@H](CCCNC(=N)N)NC(=O)[C@@H](N)CCCNC(=N)N)C(=O)N[C@@H](CC(C)C)C(=O)N[C@@H](CC(=O)O)C(=O)N[C@@H](Cc2ccc(O)cc2)C(=O)N1)C(=O)N[C@@H](CS)C(=O)N[C@@H](CC(N)=O)C(=O)N[C@@H](Cc1ccc(O)cc1)C(=O)O`, for which the outcome in the series on A549 [1] and in the series with DLD-1 [2] was Active.
Consider `CCCC[C@H](NC(=O)[C@@H]1CCC/C=C\CCC[C@H](NC(=O)[C@H](C)NC(=O)[C@H](C)NC(=O)CCNC(=O)[C@H](CCCCN)NC(=O)[C@H](CCCCN)NC(=O)[C@H](Cc2c[nH]c3ccccc23)NC(=O)[C@H](CCCCN)NC(=O)[C@H](CCSC)NC(=O)[C@H](CCCNC(=N)N)NC(=O)[C@H](CCCNC(=N)N)NC(=O)[C@H](CC(N)=O)NC(=O)[C@H](CCC(N)=O)NC(=O)[C@H](Cc2ccccc2)NC(=O)[C@H](Cc2c[nH]c3ccccc23)NC(=O)[C@@H](NC(=O)[C@H](CCCCN)NC(=O)[C@@H](NC(=O)[C@H](CCC(N)=O)NC(=O)[C@@H](N)CCCNC(=N)N)[C@@H](C)CC)[C@@H](C)CC)C(=O)N[C@@H](CC(C)C)C(=O)N[C@@H](CC(=O)O)C(=O)N[C@@H](Cc2ccc(O)cc2)C(=O)N1)C(=O)N[C@@H](CS)C(=O)N[C@@H](CC(N)=O)C(=O)N[C@@H](Cc1ccc(O)cc1)C(=O)O`, for which the outcome in the series on A549 [1], with DLD-1 [2], with A549 [4] and with DLD-1 [5] was Active. Moreover, the inhibition result with HEK293 [8] was “Dde”.
Consider `CCCC[C@H](NC(=O)[C@@H]1CCC/C=C\CCC[C@H](NC(=O)[C@H](C)NC(=O)[C@H](C)NC(=O)CCN)C(=O)N[C@@H](CC(C)C)C(=O)N[C@@H](CC(=O)O)C(=O)N[C@@H](Cc2ccc(O)cc2)C(=O)N1)C(=O)N[C@@H](CS)C(=O)N[C@@H](CC(N)=O)C(=O)N[C@@H](Cc1ccc(O)cc1)C(=O)O` (H-[βAla]AA[Nle(6-ylidene)]LDY[Nle(6-ylidene)][Nle]CNY-OH; staple (Z) 4-8), for which the remaining at 8 h, 100 µM in series [3] came to 65%.
